Data published in ChEMBL document CHEMBL1145390, “Synthesis and preliminary biological characterization of new semisynthetic derivatives of ramoplanin” (J Med Chem, 2007).
Values after ≈ are worked out from the molar mass of the structure shown.

Assays:
Staphylococcus aureus [1] = assay: Antibacterial activity against vancomycin-intermediate resistant Staphylococcus aureus clinical isolate after 24 hrs by broth microdilution method; format: functional
Staphylococcus aureus [2] = assay: Antibacterial activity against Staphylococcus aureus Smith after 24 hrs by broth microdilution method; format: functional; settings: read-out: MIC
Staphylococcus aureus [3] = assay: Antibacterial activity against methicillin-resistant and vancomycin-intermediate resistant Staphylococcus aureus clinical isolate after 24 hrs by broth microdilution method; format: functional; settings: read-out: MIC
Streptococcus pyogenes = assay: Antibacterial activity against Streptococcus pyogenes C203 after 24 hrs by broth microdilution method; format: functional; settings: C203, 24 h, read-out: MIC
Enterococcus faecalis [4] = assay: Antibacterial activity against Enterococcus faecalis after 24 hrs by broth microdilution method; format: functional; settings: read-out: MIC
Enterococcus faecium [5] = assay: Antibacterial activity against Enterococcus faecium after 24 hrs by broth microdilution method; format: functional; settings: read-out: MIC
[6] = Toxicity assessed as hemolysis in erythrocytes at 180 mg/L; format: cell-based, Erythrocyte; settings: human, erythrocytes; read-out: Activity
Enterococcus faecalis [7] = assay: Antibacterial activity against vancomycin A-resistant Enterococcus faecalis after 24 hrs by broth microdilution method; format: functional; settings: read-out: MIC
Escherichia coli = assay: Antibacterial activity against Escherichia coli SKF-12140 after 24 hrs by broth microdilution method; format: functional; settings: read-out: MIC
Staphylococcus aureus [8] = assay: Antibacterial activity against methicillin-resistant Staphylococcus aureus clinical isolate after 24 hrs by broth microdilution method; format: functional; settings: read-out: MIC
[9] = Toxicity assessed as hemolysis in erythrocytes at 90 mg/L; format: cell-based, Erythrocyte; settings: human, erythrocytes; read-out: Activity
Enterococcus faecium [10] = assay: Antibacterial activity against vancomycin A-resistant Enterococcus faecium clinical isolate after 24 hrs by broth microdilution method; format: functional; settings: read-out: MIC
Candida albicans = assay: Antifungal activity against Candida albicans SKF-2270 after 24 hrs by broth microdilution method; format: functional; settings: read-out: MIC

Compound	MIC (Staphylococcus aureus [1]) [µg/mL]	MIC (Staphylococcus aureus [2]) [µg/mL]	MIC (Staphylococcus aureus [3]) [µg/mL]	MIC (Streptococcus pyogenes) [µg/mL]	MIC (Enterococcus faecalis [4]) [µg/mL]	MIC (Enterococcus faecium [5]) [µg/mL]	hemolysis at 180 mg/L [6] [%]	MIC (Enterococcus faecalis [7]) [µg/mL]	MIC (Escherichia coli) [µg/mL]	MIC (Staphylococcus aureus [8]) [µg/mL]	hemolysis at 90 mg/L [9] [%]	MIC (Enterococcus faecium [10]) [µg/mL]	MIC (Candida albicans) [µg/mL]
CC(C)C[C@@H]1NC(=O)CNC(=O)[C@H](c2ccc(O)cc2)NC(=O)[C@@H]([C@@H](C)O)NC(=O)[C@H](c2ccc(O[C@H]3O[C@H](CO)[C@@H](O)[C@H](O)[C@@H]3O[C@H]3O[C@H](CO)[C@@H](O)[C@H](O)[C@@H]3O)cc2)NC(=O)[C@@H](CCCN)NC(=O)[C@H](Cc2ccccc2)NC(=O)[C@H]([C@@H](C)O)NC(=O)[C@@H](c2ccc(O)cc2)NC(=O)[C@H](c2ccc(O)cc2)NC(=O)[C@@H](C(C)C)NC(=O)[C@@H](CCCN)NC(=O)[C@@H](c2ccc(O)cc2)NC(=O)[C@@H](CNC(=O)[C@H](CC(N)=O)NC(=O)Cc2ccc(Cl)cc2)[C@@H](C(N)=O)OC(=O)[C@H](c2ccc(O)c(Cl)c2)NC(=O)[C@@H](C)NC1=O	2 (≈ 0.774 µM)	0.5 (≈ 0.194 µM)	4 (≈ 1.55 µM)	≤ 0.03	0.5 (≈ 0.194 µM)	1 (≈ 0.387 µM)	0	0.5 (≈ 0.194 µM)	> 32	0.5 (≈ 0.194 µM)	0	1 (≈ 0.387 µM)	> 32
CCCCCOc1ccc(C(=O)N[C@@H](CC(N)=O)C(=O)NC[C@@H]2C(=O)N[C@H](c3ccc(O)cc3)C(=O)N[C@H](CCCN)C(=O)N[C@H](C(C)C)C(=O)N[C@@H](c3ccc(O)cc3)C(=O)N[C@H](c3ccc(O)cc3)C(=O)N[C@@H]([C@@H](C)O)C(=O)N[C@@H](Cc3ccccc3)C(=O)N[C@H](CCCN)C(=O)N[C@@H](c3ccc(O[C@H]4O[C@H](CO)[C@@H](O)[C@H](O)[C@@H]4O[C@H]4O[C@H](CO)[C@@H](O)[C@H](O)[C@@H]4O)cc3)C(=O)N[C@H]([C@@H](C)O)C(=O)N[C@@H](c3ccc(O)cc3)C(=O)NCC(=O)N[C@@H](CC(C)C)C(=O)N[C@H](C)C(=O)N[C@@H](c3ccc(O)c(Cl)c3)C(=O)O[C@@H]2C(N)=O)cc1	4 (≈ 1.53 µM)	8 (≈ 3.05 µM)	8 (≈ 3.05 µM)	0.25 (≈ 0.0954 µM)	0.25 (≈ 0.0954 µM)	0.25 (≈ 0.0954 µM)	10	0.25 (≈ 0.0954 µM)	> 32	2 (≈ 0.763 µM)	8	0.25 (≈ 0.0954 µM)	> 32
CCCCCC(=O)N[C@@H](CC(N)=O)C(=O)NC[C@@H]1C(=O)N[C@H](c2ccc(O)cc2)C(=O)N[C@H](CCCN)C(=O)N[C@H](C(C)C)C(=O)N[C@@H](c2ccc(O)cc2)C(=O)N[C@H](c2ccc(O)cc2)C(=O)N[C@@H]([C@@H](C)O)C(=O)N[C@@H](Cc2ccccc2)C(=O)N[C@H](CCCN)C(=O)N[C@@H](c2ccc(O[C@H]3O[C@H](CO)[C@@H](O)[C@H](O)[C@@H]3O[C@H]3O[C@H](CO)[C@@H](O)[C@H](O)[C@@H]3O)cc2)C(=O)N[C@H]([C@@H](C)O)C(=O)N[C@@H](c2ccc(O)cc2)C(=O)NCC(=O)N[C@@H](CC(C)C)C(=O)N[C@H](C)C(=O)NC(c2ccc(O)c(Cl)c2)C(=O)O[C@@H]1C(N)=O (stereo partly specified)	16 (≈ 6.33 µM)	4 (≈ 1.58 µM)	32 (≈ 12.7 µM)	0.125 (≈ 0.0494 µM)	2 (≈ 0.791 µM)	4 (≈ 1.58 µM)	8	2 (≈ 0.791 µM)	> 32	4 (≈ 1.58 µM)	0	4 (≈ 1.58 µM)	> 32
CC(C)C[C@@H]1NC(=O)CNC(=O)[C@H](c2ccc(O)cc2)NC(=O)[C@@H]([C@@H](C)O)NC(=O)[C@H](c2ccc(O[C@H]3O[C@H](CO)[C@@H](O)[C@H](O)[C@@H]3O[C@H]3O[C@H](CO)[C@@H](O)[C@H](O)[C@@H]3O)cc2)NC(=O)[C@@H](CCCN)NC(=O)[C@H](Cc2ccccc2)NC(=O)[C@H]([C@@H](C)O)NC(=O)[C@@H](c2ccc(O)cc2)NC(=O)[C@H](c2ccc(O)cc2)NC(=O)[C@@H](C(C)C)NC(=O)[C@@H](CCCN)NC(=O)[C@@H](c2ccc(O)cc2)NC(=O)[C@@H](CNC(=O)[C@H](CC(N)=O)NC(=O)c2ccc(O)cc2)[C@@H](C(N)=O)OC(=O)[C@H](c2ccc(O)c(Cl)c2)NC(=O)[C@@H](C)NC1=O	> 32	32 (≈ 12.5 µM)	> 32	0.5 (≈ 0.196 µM)	16 (≈ 6.27 µM)	32 (≈ 12.5 µM)	4	32 (≈ 12.5 µM)	> 32	32 (≈ 12.5 µM)	0	32 (≈ 12.5 µM)	> 32
CCCCCCCCCC(=O)N[C@@H](CC(N)=O)C(=O)NC[C@@H]1C(=O)N[C@H](c2ccc(O)cc2)C(=O)N[C@H](CCCN)C(=O)N[C@H](C(C)C)C(=O)N[C@@H](c2ccc(O)cc2)C(=O)N[C@H](c2ccc(O)cc2)C(=O)N[C@@H]([C@@H](C)O)C(=O)N[C@@H](Cc2ccccc2)C(=O)N[C@H](CCCN)C(=O)N[C@@H](c2ccc(O[C@H]3O[C@H](CO)[C@@H](O)[C@H](O)[C@@H]3O[C@H]3O[C@H](CO)[C@@H](O)[C@H](O)[C@@H]3O)cc2)C(=O)N[C@H]([C@@H](C)O)C(=O)N[C@@H](c2ccc(O)cc2)C(=O)NCC(=O)N[C@@H](CC(C)C)C(=O)N[C@H](C)C(=O)N[C@@H](c2ccc(O)c(Cl)c2)C(=O)O[C@@H]1C(N)=O	4 (≈ 1.55 µM)	2 (≈ 0.774 µM)	8 (≈ 3.1 µM)	0.25 (≈ 0.0967 µM)	0.125 (≈ 0.0484 µM)	0.25 (≈ 0.0967 µM)	41	0.06 (≈ 0.0232 µM)	> 32	2 (≈ 0.774 µM)	0	0.06 (≈ 0.0232 µM)	> 32
CCOc1ccc(C(=O)N[C@@H](CC(N)=O)C(=O)NC[C@@H]2C(=O)N[C@H](c3ccc(O)cc3)C(=O)N[C@H](CCCN)C(=O)N[C@H](C(C)C)C(=O)N[C@@H](c3ccc(O)cc3)C(=O)N[C@H](c3ccc(O)cc3)C(=O)N[C@@H]([C@@H](C)O)C(=O)N[C@@H](Cc3ccccc3)C(=O)N[C@H](CCCN)C(=O)N[C@@H](c3ccc(O[C@H]4O[C@H](CO)[C@@H](O)[C@H](O)[C@@H]4O[C@H]4O[C@H](CO)[C@@H](O)[C@H](O)[C@@H]4O)cc3)C(=O)N[C@H]([C@@H](C)O)C(=O)N[C@@H](c3ccc(O)cc3)C(=O)NCC(=O)N[C@@H](CC(C)C)C(=O)N[C@H](C)C(=O)N[C@@H](c3ccc(O)c(Cl)c3)C(=O)O[C@@H]2C(N)=O)cc1	8 (≈ 3.1 µM)	1 (≈ 0.388 µM)	32 (≈ 12.4 µM)	< 0.03	2 (≈ 0.776 µM)	2 (≈ 0.776 µM)	1	2 (≈ 0.776 µM)	> 32	2 (≈ 0.776 µM)	1	2 (≈ 0.776 µM)	> 32
CC(C)C[C@@H]1NC(=O)CNC(=O)[C@H](c2ccc(O)cc2)NC(=O)[C@@H]([C@@H](C)O)NC(=O)[C@H](c2ccc(O[C@H]3O[C@H](CO)[C@@H](O)[C@H](O)[C@@H]3O[C@H]3O[C@H](CO)[C@@H](O)[C@H](O)[C@@H]3O)cc2)NC(=O)[C@@H](CCCN)NC(=O)[C@H](Cc2ccccc2)NC(=O)[C@H]([C@@H](C)O)NC(=O)[C@@H](c2ccc(O)cc2)NC(=O)[C@H](c2ccc(O)cc2)NC(=O)[C@@H](C(C)C)NC(=O)[C@@H](CCCN)NC(=O)[C@@H](c2ccc(O)cc2)NC(=O)[C@@H](CNC(=O)[C@H](CC(N)=O)NC(=O)COc2ccccc2)[C@@H](C(N)=O)OC(=O)[C@H](c2ccc(O)c(Cl)c2)NC(=O)[C@@H](C)NC1=O	16 (≈ 6.24 µM)	4 (≈ 1.56 µM)	32 (≈ 12.5 µM)	0.06 (≈ 0.0234 µM)	8 (≈ 3.12 µM)	4 (≈ 1.56 µM)	0	4 (≈ 1.56 µM)	> 32	8 (≈ 3.12 µM)	0	4 (≈ 1.56 µM)	> 32
